Laboratory results reported in patent US11752155B2, “Treatment of autism spectrum disorders, obsessive-compulsive disorder and anxiety disorders” (Rugen Holdings (Cayman) Limited, priority 2016, dated 2023).
Read-outs that look alike come from different tables or passages of the source.

What was measured:
[1] = tested on: Shank3 complete knockout mice; experiment: Grooming Test in Shank3 complete knockout mice; format: in vivo, mouse; conditions: for acute effect on grooming: single IP dose, 20 min postdose, Day 1
Method: Animals. The breeding conditions and genotyping methods for Sapap3 and Shank3 complete knockout mice were the same as described in Welch et al. (Nature 2007, 448(7156):894-900) and in Wang et al. (Nat. Commun. 2016, 7:11459), respectively. Homozygous knockout mice and littermate wild type mice of both genders were used at 4 to 8 weeks of age.
Compound formulation. The test compounds were dissolved in a small volume of dimethyl sulfoxide (DMSO) and diluted in an aqueous solution of 2-hydroxypropyl-beta-cyclodextrin (HP-β-CD) and administered IP. Dosing volume was 10 mL/kg. At 20 minutes after dosing, the mice were subjected to the behavioral test as described below.
Testing room and apparatus. The test room was maintained under the same conditions as the colony rooms, except the mice were housed in conventional shoe-box cages with food, water, and nesting materials. Animals were housed in the test room 48-72 hours prior to testing, in order to permit the mice to fully acclimate to the test room and conventional housing cages before testing. Tests were conducted in white polyvinyl-fluoride hard-sided foam test arenas (20×20×12 cm). The arenas were indirectly illuminated by dimmable LED light bars placed level with the arena floor and 30 cm away from the external wall of the test arena. This permitted the internal area of the arena to be evenly illuminated at approximately 40 lux. The illumination levels where the mice were housed before testing were about 80-100 lux.
Testing procedure. Mice were carefully placed into the test arenas 20 minutes after compound administration. Animals were given free exploration of the arena for 10 minutes, after which they were gently sprayed with 4 quick pumps of a water mist (total water volume approximated 1.5-1.7 mL). Mice were then allowed an additional 10 minutes to self-groom and engage in other behaviors before being removed from the arena. All tests were videotaped using cameras mounted above the testing arena and were saved to digital media format using Noldus Media Player software (Noldus Information Technologies, Leesburg, Va.). The mice were only tested once in the acute studies and were repeatedly tested in the sustained effect studies.
Quantitation of grooming bouts. Analyses of the video recordings were conducted with TopScan behavioral recognition software (Cleversys Inc, Reston, Va.). Configurations were made which scored time spent in grooming. […] These settings permitted automated scoring of grooming by TopScan that corresponded well to manual-scoring of these behaviors by a trained blinded observer using Noldus Observer XT9 (Noldus Information Technologies), with an average corrected kappa of 0.925 (range 0.807-0.983).
Statistical analyses. Data are presented as means and standard error of the means (SEMs). Analyses were conducted using SPSS 23 (IBM SPSS Statistics, Chicago, Ill.). Time spent in grooming behavior (seconds) over the 10-minute pre- and post-spray time blocks were analyzed with repeated measures analyses of variance (RMANOVA). The pre- and post-spray times were used for the within subject effects and the genotype and compound treatment condition were used as the between subject effects. In sustained effect studies, days were also used for a within subject effect. […]
The amount of time mice spent grooming in a novel environment was quantified in Shank3 complete knockout mice (Wang et al. Nat. Commun. 2016, 7:11459) and their wild type littermates for 10 minutes. […]

[2] = Clearance of compound from plasma after IP dosing in mice; format: in vivo, mouse
[3] = molecular target: human NR1/NR2B (Homo sapiens (Human), UniProt Q05586+Q13224); experiment: NR2B antagonist activity: calcium influx (Fluo-4) assay in HEK293 cells; format: cell-based; conditions: read-out: NR2B IC50
Procedure, shortened: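 HEK293 cells expressing NR1/NR2A or NR1/NR2B, loaded with fluo-4-AM, preincubated 10 min at room temperature with compound in Hanks buffer/0.1% BSA.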

[4] = molecular target: human NR1/NR2A (Homo sapiens (Human), UniProt Q05586+Q12879); experiment: NR2A antagonist activity: calcium influx (Fluo-4) assay in HEK293 cells; format: cell-based; conditions: Table 1.1B; read-out: NR2A IC50
Method: Activation of the NR2A or NR2B subtype of NMDA receptor with glutamate as an agonist and glycine co-agonist on these cells results in calcium influx, which can be monitored with fluorescent indicator Fluo-4.
For experiments, the cells were seeded onto poly-D-lysine-coated 96-well black plates with clear bottom (Corning) at a density of ˜50,000 cells/well. After overnight culture, the growth medium was removed from the wells and the cells were incubated at 37° C. for 60 minutes in Hanks buffer containing 4 μM fluo-4-AM (Invitrogen) and 0.1% bovine serum albumin (BSA). After dye-loading, the cells were washed three times with Hanks buffer and incubated for 10 minutes at room temperature with various concentrations of test compounds prepared in Hanks buffer with 0.1% BSA. The cell plates were placed onto an FDSS Cell fluorescence reader (Hamamatsu). After 20 seconds of reading background fluorescence, agonist glutamate at final 100 µM and co-agonist glycine at final 50 μM were added to the cells to activate the receptor, and the resulting fluorescence changes were recorded and quantified. Based on the changes in fluorescence intensity, the pharmacological effect of test compounds was analyzed and the IC50 values derived from a non-linear least squares fitting of the concentration-dependent response to a standard logistic equation using Prism (Graphpad Software, Inc.): Amplitude=Max Amplitude/(1+(IC50/[antagonist])^n).

[5] = molecular target: native rat brain NR2B receptors (Rattus norvegicus (Rat), UniProt P35439+Q00960); experiment: NR2B radioligand binding assay in rat brain using [3H] (E)-N1-(2-methoxybenzyl)-cinnamidine; conditions: rat brain NR2B receptors; mean of replicates; read-out: Arithmetic Mean Ki
[6] = single dose 3 mg/kg IP on Day 1

human NR1/NR2B, sequence (Q13224 27-1484, other chains not shown): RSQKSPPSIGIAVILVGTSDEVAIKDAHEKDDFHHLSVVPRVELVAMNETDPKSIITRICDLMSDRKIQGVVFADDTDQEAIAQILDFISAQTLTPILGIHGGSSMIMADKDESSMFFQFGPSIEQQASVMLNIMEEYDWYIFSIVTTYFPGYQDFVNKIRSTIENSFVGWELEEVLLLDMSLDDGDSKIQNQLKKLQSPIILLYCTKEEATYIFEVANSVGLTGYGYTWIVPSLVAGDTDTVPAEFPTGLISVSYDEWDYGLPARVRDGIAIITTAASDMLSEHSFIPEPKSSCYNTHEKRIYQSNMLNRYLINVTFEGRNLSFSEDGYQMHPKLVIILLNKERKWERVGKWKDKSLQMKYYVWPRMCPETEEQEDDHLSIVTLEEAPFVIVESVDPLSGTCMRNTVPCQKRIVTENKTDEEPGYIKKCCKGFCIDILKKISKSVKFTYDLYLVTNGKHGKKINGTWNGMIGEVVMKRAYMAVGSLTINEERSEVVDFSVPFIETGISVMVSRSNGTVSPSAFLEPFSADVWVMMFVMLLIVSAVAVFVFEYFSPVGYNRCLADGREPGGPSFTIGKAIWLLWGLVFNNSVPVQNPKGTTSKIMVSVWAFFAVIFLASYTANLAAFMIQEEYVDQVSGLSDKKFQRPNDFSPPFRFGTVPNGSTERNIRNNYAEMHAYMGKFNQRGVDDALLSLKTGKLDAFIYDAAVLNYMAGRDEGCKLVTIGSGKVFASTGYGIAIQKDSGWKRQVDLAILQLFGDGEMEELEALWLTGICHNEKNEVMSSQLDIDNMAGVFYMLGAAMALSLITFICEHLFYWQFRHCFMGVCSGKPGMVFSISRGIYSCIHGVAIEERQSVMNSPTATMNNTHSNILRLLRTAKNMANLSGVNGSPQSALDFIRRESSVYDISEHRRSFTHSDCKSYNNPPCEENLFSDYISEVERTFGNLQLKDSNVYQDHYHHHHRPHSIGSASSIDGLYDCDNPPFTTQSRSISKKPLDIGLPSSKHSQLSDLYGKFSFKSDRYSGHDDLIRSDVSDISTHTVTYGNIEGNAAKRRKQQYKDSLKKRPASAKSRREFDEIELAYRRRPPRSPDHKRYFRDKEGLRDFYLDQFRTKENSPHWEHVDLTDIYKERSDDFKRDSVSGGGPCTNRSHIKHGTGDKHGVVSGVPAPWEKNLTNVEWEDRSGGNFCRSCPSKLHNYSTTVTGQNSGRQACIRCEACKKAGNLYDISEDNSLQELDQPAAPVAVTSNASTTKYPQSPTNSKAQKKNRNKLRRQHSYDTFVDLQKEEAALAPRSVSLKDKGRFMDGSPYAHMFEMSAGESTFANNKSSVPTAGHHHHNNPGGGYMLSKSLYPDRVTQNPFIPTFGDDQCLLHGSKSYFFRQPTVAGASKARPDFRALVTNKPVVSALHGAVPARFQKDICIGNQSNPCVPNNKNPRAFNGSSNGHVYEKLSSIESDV
native rat brain NR2B receptors, sequence (Q00960 27-1482, other chains not shown): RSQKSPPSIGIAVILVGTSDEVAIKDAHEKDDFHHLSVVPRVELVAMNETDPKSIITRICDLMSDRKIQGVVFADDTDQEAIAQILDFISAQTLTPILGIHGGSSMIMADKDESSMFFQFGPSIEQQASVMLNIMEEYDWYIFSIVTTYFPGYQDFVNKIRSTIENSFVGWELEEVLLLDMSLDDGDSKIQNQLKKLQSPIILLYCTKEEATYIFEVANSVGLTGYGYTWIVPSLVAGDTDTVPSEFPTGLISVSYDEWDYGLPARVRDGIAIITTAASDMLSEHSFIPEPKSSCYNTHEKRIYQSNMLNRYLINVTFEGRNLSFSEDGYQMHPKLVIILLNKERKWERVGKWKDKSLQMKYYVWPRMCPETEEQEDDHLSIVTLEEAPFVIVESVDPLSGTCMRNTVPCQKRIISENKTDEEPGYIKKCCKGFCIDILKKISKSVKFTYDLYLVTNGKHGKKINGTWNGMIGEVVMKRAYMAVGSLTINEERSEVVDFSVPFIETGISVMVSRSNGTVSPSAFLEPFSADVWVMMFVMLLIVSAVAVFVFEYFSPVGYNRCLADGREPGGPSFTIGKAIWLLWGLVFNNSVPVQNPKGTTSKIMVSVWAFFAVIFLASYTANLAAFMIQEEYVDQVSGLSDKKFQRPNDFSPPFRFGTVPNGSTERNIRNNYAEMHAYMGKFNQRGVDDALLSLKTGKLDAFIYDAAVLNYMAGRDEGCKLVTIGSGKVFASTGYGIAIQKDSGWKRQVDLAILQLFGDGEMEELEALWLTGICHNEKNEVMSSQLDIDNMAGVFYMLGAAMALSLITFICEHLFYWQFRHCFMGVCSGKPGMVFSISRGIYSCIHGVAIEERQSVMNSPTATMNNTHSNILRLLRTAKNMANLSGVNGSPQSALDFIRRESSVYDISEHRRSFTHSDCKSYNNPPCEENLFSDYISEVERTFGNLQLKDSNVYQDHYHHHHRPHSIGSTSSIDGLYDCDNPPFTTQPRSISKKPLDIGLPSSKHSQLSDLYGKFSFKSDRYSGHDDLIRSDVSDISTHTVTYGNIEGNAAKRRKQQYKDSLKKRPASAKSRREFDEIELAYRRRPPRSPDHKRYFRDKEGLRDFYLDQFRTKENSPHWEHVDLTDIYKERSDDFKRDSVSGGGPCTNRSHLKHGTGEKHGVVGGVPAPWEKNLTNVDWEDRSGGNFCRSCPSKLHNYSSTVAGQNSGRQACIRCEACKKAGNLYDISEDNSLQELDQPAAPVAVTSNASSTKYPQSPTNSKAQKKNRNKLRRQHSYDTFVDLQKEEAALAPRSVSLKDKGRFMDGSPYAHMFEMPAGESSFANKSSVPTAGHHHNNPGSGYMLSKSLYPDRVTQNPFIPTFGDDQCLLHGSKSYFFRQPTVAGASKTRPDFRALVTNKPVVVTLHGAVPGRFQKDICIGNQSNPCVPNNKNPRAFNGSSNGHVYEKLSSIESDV
human NR1/NR2A, sequence (Q12879 23-1464, other chains not shown): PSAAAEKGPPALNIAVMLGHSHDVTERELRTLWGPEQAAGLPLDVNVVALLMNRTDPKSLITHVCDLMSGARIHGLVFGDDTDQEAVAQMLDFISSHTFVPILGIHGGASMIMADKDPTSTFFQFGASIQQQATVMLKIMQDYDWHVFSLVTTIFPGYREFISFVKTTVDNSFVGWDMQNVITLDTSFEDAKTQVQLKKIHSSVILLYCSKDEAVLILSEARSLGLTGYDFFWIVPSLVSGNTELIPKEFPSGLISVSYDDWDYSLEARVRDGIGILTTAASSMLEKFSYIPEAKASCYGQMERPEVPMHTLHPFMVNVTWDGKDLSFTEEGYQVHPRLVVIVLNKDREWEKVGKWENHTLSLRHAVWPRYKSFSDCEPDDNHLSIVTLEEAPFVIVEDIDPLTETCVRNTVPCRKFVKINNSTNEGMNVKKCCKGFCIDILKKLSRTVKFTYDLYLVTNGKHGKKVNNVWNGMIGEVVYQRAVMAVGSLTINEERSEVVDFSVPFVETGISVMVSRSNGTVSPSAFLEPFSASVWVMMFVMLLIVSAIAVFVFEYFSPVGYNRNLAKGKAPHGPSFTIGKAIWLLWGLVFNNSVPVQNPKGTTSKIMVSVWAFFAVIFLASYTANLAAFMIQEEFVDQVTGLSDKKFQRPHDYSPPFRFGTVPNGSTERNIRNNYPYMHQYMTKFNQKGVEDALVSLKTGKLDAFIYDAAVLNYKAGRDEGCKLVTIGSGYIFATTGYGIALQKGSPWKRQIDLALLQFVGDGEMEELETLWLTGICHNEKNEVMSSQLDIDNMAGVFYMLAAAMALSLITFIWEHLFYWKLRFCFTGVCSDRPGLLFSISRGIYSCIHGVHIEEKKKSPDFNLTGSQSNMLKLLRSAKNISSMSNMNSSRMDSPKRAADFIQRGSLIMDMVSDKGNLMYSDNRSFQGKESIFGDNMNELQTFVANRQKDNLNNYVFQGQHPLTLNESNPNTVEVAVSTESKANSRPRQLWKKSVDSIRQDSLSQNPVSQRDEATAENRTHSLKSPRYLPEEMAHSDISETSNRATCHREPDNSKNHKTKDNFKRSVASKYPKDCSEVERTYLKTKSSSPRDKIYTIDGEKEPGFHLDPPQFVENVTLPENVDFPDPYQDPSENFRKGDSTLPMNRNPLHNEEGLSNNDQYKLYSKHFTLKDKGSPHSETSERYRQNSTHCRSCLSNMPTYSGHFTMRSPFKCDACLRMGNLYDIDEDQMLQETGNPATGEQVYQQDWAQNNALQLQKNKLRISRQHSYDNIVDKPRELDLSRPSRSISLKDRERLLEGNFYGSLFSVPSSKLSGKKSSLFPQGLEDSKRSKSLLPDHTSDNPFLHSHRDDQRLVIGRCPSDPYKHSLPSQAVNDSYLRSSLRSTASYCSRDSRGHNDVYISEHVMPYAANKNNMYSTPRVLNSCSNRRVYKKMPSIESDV

| Compound | acute effect on grooming [1] | significantly reduced grooming through Day ([1]; single dose 1 mg/kg IP on Day 1) | significantly reduced grooming through Day [1, 6] | time to clearance of the compound from plasma [2] | IC50 ([3]; Table 1.1B) | IC50 ([3]; Table 1.3B) | IC50 ([3]; Table 1.4B) | IC50 [4] | Ki [5] |
| --- | --- | --- | --- | --- | --- | --- | --- | --- | --- |
| FC(F)c1ccc(C(F)(F)CN2CCC(Nc3ncnc4[nH]ccc34)CC2)cc1 [C-179^A′] | significantly reduced grooming | 33 days | 33 days | about 8 hours | – | – | – | – | – |
| Cc1ccc(COC(=O)N2CC[C@H](CNc3nccn4cnnc34)C(F)(F)C2)cc1 [E1-1.2^B′] | – | – | – | – | 20.7 nM | 20.7 nM | 20.7 nM | > 10000 nM | 4.81 nM |
| Cc1ccc(COC(=O)N2CC[C@H](CNc3cnc(C)cn3)C(F)(F)C2)cc1 [E1-21.26^B′] | – | – | – | about 8 hours | 29 nM | 29 nM | 29 nM | – | – |
| Cc1ccc(COC(=O)N2CC[C@H](CNc3ncccn3)C(F)(F)C2)cc1 [E1-22.2^B′] | significantly reduced grooming | – | 33 days | – | – | – | – | – | – |
